Results: US8426459B2, “Composition of flavanolignan and amino acid with improved water solubility” (Agra Group, A.S., priority 2008, dated 2013)
Converted amounts (≈) assume the structure as drawn. Where two headings read alike, the source gives them in different places.

Tests used:
[1] = Solubility of individual components of flavanolignans in the mixture according to Example 1; format: physicochemical; settings: for solubility: read-out: Solubility of individual component in the mixture according to Example 1
Text: Solubility of individual components of flavanolignans in the mixture according to Example 1

[2] = cited from earlier work
[3] = aqueous solution, 25° C., cited from earlier work; for p I: pI = ½ (pK2 + pK3)
[4] = 25° C., cited from earlier work
[5] = Solutions of amino acids in water easily prepared at room temperature; format: physicochemical
Text: When dissolving the mixtures according to the invention in water it is necessary to take into consideration the different solubilities of the basic amino acids themselves.

[6] = Buffer solution pH 4.5 (Bates, sodium acetate and hydrochloric acid, ionic strength 0.05)

Compound	Solubility of individual component in the mixture according to Example 1 [1, 6] [µg/mL]	Solubility of individual component in the mixture according to Example 1 ([1]; Purified water) [µg/mL]	pKa.1 ([2]; 25° C.)	pKa.2 ([2]; 25° C.)	pKa.3 ([2]; 25° C.)	pKa.1 ([2]; 37° C.)	pKa.2 ([2]; 37° C.)	pKa.3 ([2]; 37° C.)	also measured
COc1cc([C@@H]2Oc3cc([C@H]4Oc5cc(O)cc(O)c5C(=O)[C@@H]4O)ccc3O[C@H]2CO)ccc1O [Silybin B, silybin B]	209.62	289.05							
COc1cc([C@@H]2[C@H]3CO[C@@]4(O)C(=O)[C@@H]2C=C([C@H]2Oc5cc(O)cc(O)c5C(=O)[C@@H]2O)[C@@H]34)ccc1O [silydianin]			6.64	7.78	9.66	7.10	8.93	10.06	solubility ([1]; aqueous buffer, Buffer solution pH 4.5 (Bates, sodium acetate and hydrochloric acid, ionic strength 0.05)): 189 µg/mL (≈ 392 µM); solubility ([1]; purified water, water): 215 µg/mL (≈ 445 µM)
N=C(N)NCCC[C@H](N)C(=O)O [L-arginine]									pK1 [3]: 2.01; pK2 [3]: 9.04; pK3 [3]: 12.48; p I [3]: 10.76
COc1cc([C@@H]2Oc3c(O)cc([C@H]4Oc5cc(O)cc(O)c5C(=O)[C@@H]4O)cc3[C@H]2CO)ccc1O [silychristin]	241.57	258.24	6.52	7.22	8.96	6.62	7.41	8.94	
COc1cc(C2Oc3cc([C@H]4Oc5cc(O)cc(O)c5C(=O)[C@@H]4O)ccc3OC2CO)ccc1O (stereo partly shown) [silybin]			7.00	pKa.2[25° C.] = 8.77; pKa.2[37° C.] = 8.77	9.57	6.86	pKa.2[25° C.] = 8.77; pKa.2[37° C.] = 8.77	9.62	solubility of silybin ([4]; Capryl-caprine triglyceride): 800 ± 500 µg/mL; solubility of silybin ([4]; Castor oil): 7100 ± 1200 µg/mL; solubility of silybin ([4]; Ethanol): 225200 ± 5200 µg/mL; solubility of silybin ([4]; Ethoxy diglycol): 350100 ± 10400 µg/mL; solubility of silybin ([4]; Ethyl linoleate): 2100 ± 800 µg/mL; solubility of silybin ([4]; Fish oil): 500 ± 200 µg/mL; solubility of silybin ([4]; Glyceryl monooleate): 33200 ± 2800 µg/mL; solubility of silybin ([4]; Polyethylene glycol 200): 345900 ± 9500 µg/mL; solubility of silybin ([4]; Polyethylene glycol 400/ethanol (1:1)): 342100 ± 7100 µg/mL; solubility of silybin ([4]; Propylene glycol): 162400 ± 3600 µg/mL; solubility of silybin ([4]; Tocopherol): 20000 ± 1900 µg/mL; solubility of silybin ([4]; Water): 400 ± 100 µg/mL
Isosylibin	78.63	112.90							
COc1cc([C@H]2Oc3cc([C@H]4Oc5cc(O)cc(O)c5C(=O)[C@@H]4O)ccc3O[C@@H]2CO)ccc1O [Silybin A, silybin A]	127.95	178.41							
NCCCC[C@H](N)C(=O)O [L-lysine]									concentration of amino acid solution in water that can be easily prepared [5]: 1.0 M; pK1 [3]: 2.18; pK2 [3]: 8.95; pK3 [3]: 10.53; p I [3]: 9.47
